{"source": "patent US20210000912A1", "about": "“Compositions And Methods For Prophylaxis Or Treatment Of Pain” (Interk Peptide Therapeutics Limited, priority 2017, published 2021)", "key": {"CFA-injected mice [1]": {"system": "CFA-injected mice", "test": "CFA inflammatory pain model, incapacitance testing"}, "PKG1β (h)": {"biological_target": "T1, PKG1β (h) (Homo sapiens, UniProt Q13976)", "T1 construct": "purchased Eurofins Pharma Discovery Services UK Ltd (contract assay service)", "T1 sequence (Q13976 1-686 isoform Q13976-2)": "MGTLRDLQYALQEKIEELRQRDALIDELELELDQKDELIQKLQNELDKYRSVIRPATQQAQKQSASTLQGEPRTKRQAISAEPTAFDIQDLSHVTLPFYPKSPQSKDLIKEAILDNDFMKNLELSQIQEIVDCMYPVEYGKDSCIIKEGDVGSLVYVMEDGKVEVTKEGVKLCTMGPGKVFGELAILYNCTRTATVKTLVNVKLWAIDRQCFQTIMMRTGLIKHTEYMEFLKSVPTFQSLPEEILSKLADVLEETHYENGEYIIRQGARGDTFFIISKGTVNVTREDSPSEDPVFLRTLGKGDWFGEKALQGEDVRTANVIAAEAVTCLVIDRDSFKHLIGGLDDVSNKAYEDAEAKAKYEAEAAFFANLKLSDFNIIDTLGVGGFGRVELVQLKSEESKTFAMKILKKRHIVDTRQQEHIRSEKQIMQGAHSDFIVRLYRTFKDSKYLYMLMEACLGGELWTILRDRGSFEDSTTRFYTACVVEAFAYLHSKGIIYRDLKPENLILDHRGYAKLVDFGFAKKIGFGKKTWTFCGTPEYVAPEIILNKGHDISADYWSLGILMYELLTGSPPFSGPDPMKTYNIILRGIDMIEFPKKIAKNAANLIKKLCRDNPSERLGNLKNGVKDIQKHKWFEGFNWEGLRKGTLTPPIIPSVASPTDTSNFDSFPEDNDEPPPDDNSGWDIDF", "test": "PKG1β kinase activity assay, cell free", "assay_type": "biochemical", "description": "The capacity of test peptides to inhibit the activity of the kinases PKG1α, PKG1β, and Src family kinases in a cell free assay was assessed. The test peptides were amidated at their C-terminal end (indicated by “—NH2”) unless otherwise noted. Kinase activity assays were conducted by Eurofins Pharma Discovery Services UK Ltd (Dundee Technology Park, Dundee, United Kingdom) and Reaction Biology Corp. (Malvern, Pa., USA).\nAll test peptides are prepared to 50× final assay concentration in 100% DMSO. This working stock of the test compound is added to assay wells as the first component in the reaction, followed by the remaining components of the respective assay protocols described below. There is no pre-incubation step between the test peptide and the kinase prior to initiation of the reaction. The kinases are diluted in buffer (20 mM MOPS, 1 mM EDTA, 0.01% Brij-35, 5% Glycerol, 0.1% β-mercaptoethanol, 1 mg/mL BSA) prior to addition to the reaction mix.\nPositive control wells contain all components of the reaction, except the test peptide of interest. However, DMSO (at a final concentration of 2%) is included in positive control wells to control for solvent effects. Negative control wells contain all components of the reaction, with a reference inhibitor (staurosporine) replacing the test peptide. This abolishes kinase activity and establishes a base-line (0% kinase activity). Kinase assay protocols (Eurofins Pharma Discovery Services UK Ltd, Dundee Technology Park, Dundee, United Kingdom) are described below. Of the Src family kinases, only the assay protocol for c-Src is shown.\nPKG1b(h) is incubated with 8 mM MOPS pH 7.0, 0.2 mM EDTA, 10 μM cGMP, 200 μM RRRLSFAEPG, 10 mM magnesium acetate and [γ-^33P]-ATP (specific activity approx. 500 cpm/pmol, concentration as required). The reaction is initiated by the addition of the MgATP mix. After incubation for 40 minutes at room temperature, the reaction is stopped by the addition of 3% phosphoric acid solution. A 10 μL aliquot of the reaction is then spotted onto a P30 filtermat and washed three times for 5 mins in 75 mM phosphoric acid and once in methanol prior to drying and scintillation counting."}, "[2]": {"test": "Resistance to simulated gastric fluid", "assay_type": "in vitro ADME", "description": "Test 14 Arg peptides consisting of 14 contiguous L- or D-arginine amino acids were tested for resistance to simulated gastric fluid (porcine pepsin in a HCl and NaCl solution) at a pH of 2.01 for a period of 24 hours. Negligible degradation of each peptide was observed by exposure to the simulated gastric fluid over the 24 hour test period."}, "CFA-injected mice [3]": {"system": "CFA-injected mice", "test": "Grip strength testing in CFA study", "assay_type": "in vivo, C57Bl/6 mice", "description": "Forepaw grip strength was determined using a grip strength meter (DFIS-2 series digital force gauge, Columbus Instruments, Columbus, Ohio). The animals' forelimbs were placed on a horizontal bar connected to a force gauge. The animal was the gently pulled away from the bar and the peak force required for a release was recorded. Each mouse was tested 3 times, with a 1 min inter-trial interval (Martinez-Huenchullan, S. F., et al., “Utility and reliability of non-invasive muscle function tests in high-fat-fed mice”. Experimental Physiology, 2017. 102(7): p. 773-778). The average peak tension (g), and tension normalised to body weight were compared."}}, "note": "pIC50: −log10 of the molar value.", "data": [{"smiles": "N=C(N)NCCC[C@H](NC(=O)[C@H](CCCNC(=N)N)NC(=O)[C@H](CCCNC(=N)N)NC(=O)[C@H](CCCNC(=N)N)NC(=O)[C@H](CCCNC(=N)N)NC(=O)[C@H](CCCNC(=N)N)NC(=O)[C@H](CCCNC(=N)N)NC(=O)[C@H](CCCNC(=N)N)NC(=O)[C@H](CCCNC(=N)N)NC(=O)[C@H](CCCNC(=N)N)NC(=O)[C@H](CCCNC(=N)N)NC(=O)[C@H](CCCNC(=N)N)NC(=O)[C@H](CCCNC(=N)N)NC(=O)[C@@H](N)CCCNC(=N)N)C(N)=O", "note": "[IK01400, RRRRRRRRRRRRRR-NH2]", "values": [{"measurement": "alleviation of inflammatory pain", "setting": "CFA-injected mice [1]; mice, both doses of the peptide employed", "value": "alleviated pain"}, {"measurement": "hyperactivity", "setting": "CFA-injected mice [1]; mice, intra-peritoneal", "value": "no hyperactivity was observed"}, {"measurement": "time at which peak effect was reached following administration", "setting": "CFA-injected mice [1]; mice, intra-peritoneal", "value": "> 1", "unit": "h"}, {"measurement": "effectiveness in incapacitance test, morphine versus IK01400 (8.6 mg/kg)", "setting": "CFA-injected mice [1]; second hour after administration", "value": "more effective than morphine"}, {"measurement": "pIC50", "setting": "PKG1β (h)", "value": 8.28}, {"measurement": "PKG1β IC50", "setting": "PKG1β (h); cell free, 10 μM cGMP, 40 minutes at room temperature", "value": "single digit nanomolar range"}, {"measurement": "remaining at 1 h", "setting": "[2]; pig, simulated gastric fluid with porcine pepsin, simulated gastric fluid pH 2.01, 1 hr, read-out: % of intact peptide observed", "value": 99.5, "unit": "%"}, {"measurement": "remaining at 4 h", "setting": "[2]; pig, simulated gastric fluid with porcine pepsin, simulated gastric fluid pH 2.01, 4 hrs, read-out: % of intact peptide observed", "value": 98.5, "unit": "%"}, {"measurement": "remaining at 24 h", "setting": "[2]; pig, simulated gastric fluid with porcine pepsin, simulated gastric fluid pH 2.01, 24 hrs, read-out: % of intact peptide observed", "value": 98.2, "unit": "%"}, {"measurement": "% of intact peptide observed", "setting": "[2]; simulated gastric fluid pH 2.01, time 0", "value": 98.51, "unit": "%"}, {"measurement": "alertness of animals", "setting": "CFA-injected mice [3]; all time points", "value": "alert at all time points"}, {"measurement": "grip strength compared to vehicle control", "setting": "CFA-injected mice [3]; intra-peritoneal, CFA study", "value": "no difference"}]}]}
